From article PMC4880925 (Scientific Reports, 2016)

What was measured:
CYP144A1 [1] = target: T1, CYP144A1 (Mycobacterium tuberculosis, UniProt P9WPL1); type: binding
T1 construct: gene cyp144
Target sequence in this assay (P9WPL1 whole entry): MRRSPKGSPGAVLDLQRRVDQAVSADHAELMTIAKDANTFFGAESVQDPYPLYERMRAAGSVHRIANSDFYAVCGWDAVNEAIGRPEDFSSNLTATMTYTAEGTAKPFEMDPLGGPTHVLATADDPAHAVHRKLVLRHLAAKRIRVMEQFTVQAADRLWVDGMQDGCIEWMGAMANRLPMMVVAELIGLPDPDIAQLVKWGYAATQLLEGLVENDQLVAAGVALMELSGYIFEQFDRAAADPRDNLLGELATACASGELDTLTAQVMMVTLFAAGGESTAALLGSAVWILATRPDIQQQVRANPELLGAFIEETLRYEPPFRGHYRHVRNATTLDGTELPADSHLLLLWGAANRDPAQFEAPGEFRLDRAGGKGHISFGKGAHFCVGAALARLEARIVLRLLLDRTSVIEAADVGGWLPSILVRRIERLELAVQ

CYP144A1 [2] = target: T1, CYP144A1; assay: […]; supported by EPR and DSC (Tm […] to […] °C); type: binding
Target sequence in this assay (P9WPL1 31-434): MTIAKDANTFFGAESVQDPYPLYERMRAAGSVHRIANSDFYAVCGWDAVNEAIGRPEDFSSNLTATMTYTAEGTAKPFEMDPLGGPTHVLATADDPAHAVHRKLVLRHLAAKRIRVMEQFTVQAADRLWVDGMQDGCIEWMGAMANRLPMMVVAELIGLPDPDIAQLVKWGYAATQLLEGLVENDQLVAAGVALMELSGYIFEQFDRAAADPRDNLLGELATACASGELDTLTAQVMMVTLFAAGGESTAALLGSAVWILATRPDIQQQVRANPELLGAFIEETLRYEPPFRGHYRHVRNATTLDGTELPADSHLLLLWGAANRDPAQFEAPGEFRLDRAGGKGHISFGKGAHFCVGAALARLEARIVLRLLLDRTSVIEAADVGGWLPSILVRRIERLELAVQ

Row | Structure (SMILES) | differential scanning calorimetry, Tm raised from 47 to 50 °C (CYP144A1 [1]) [°C] | Kd (CYP144A1 [2]) [nM]
1 | Clc1ccccc1C(c1ccccc1)(c1ccccc1)n1ccnc1 [clotrimazole] | 50 | 
2 | Clc1ccc(COC(Cn2ccnc2)c2ccc(Cl)cc2Cl)cc1 (centres unmarked) [econazole] |  | 720 ± 180
